Source: PMC9441601, “Aspergillus oryzae accelerates the conversion of ergosterol to ergosterol peroxide by efficiently utilizing cholesterol” (Frontiers in Genetics, 2022)

Each compound was assayed against T1, Osh3 (Aspergillus oryzae, UniProt Q2U562) (assay: microscale thermophoresis (MST), purified fluorescently labelled Osh3). Settings: not given.
T1 construct: gene AO090020000057
Format: binding

T1 sequence (Q2U562 entry or part of it): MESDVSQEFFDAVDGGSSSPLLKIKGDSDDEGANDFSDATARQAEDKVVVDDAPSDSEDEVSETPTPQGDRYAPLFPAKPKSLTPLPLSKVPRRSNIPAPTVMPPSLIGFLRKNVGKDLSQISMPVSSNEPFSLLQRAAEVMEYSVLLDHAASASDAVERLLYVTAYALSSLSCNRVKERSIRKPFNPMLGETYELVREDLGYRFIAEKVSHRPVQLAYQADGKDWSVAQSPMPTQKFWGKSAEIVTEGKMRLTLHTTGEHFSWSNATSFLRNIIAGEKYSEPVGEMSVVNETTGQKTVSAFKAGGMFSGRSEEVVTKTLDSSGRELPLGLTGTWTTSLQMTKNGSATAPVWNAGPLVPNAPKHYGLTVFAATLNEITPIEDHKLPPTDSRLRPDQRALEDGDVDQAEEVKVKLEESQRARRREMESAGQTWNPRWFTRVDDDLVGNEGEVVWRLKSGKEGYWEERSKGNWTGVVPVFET

SMILES	Kd
CC(C)[C@H](C)CC[C@@H](C)[C@H]1CC[C@H]2[C@@H]3CC=C4C[C@@H](O)CC[C@]4(C)[C@H]3CC[C@]12C [campesterol]	339 ± 78.1 nM
CC[C@H](/C=C/[C@@H](C)[C@H]1CC[C@H]2[C@@H]3CC=C4C[C@@H](O)CC[C@]4(C)[C@H]3CC[C@]12C)C(C)C [stigmasterol]	1 ± 0.8 nM
CC[C@H](CC[C@@H](C)[C@H]1CC[C@H]2[C@@H]3CC=C4C[C@@H](O)CC[C@]4(C)[C@H]3CC[C@]12C)C(C)C [β-sitosterol]	65.8 ± 24.6 nM

Same assay, conditions: read-out: Kd

SMILES	Kd
CC(C)CCC[C@@H](C)[C@H]1CC[C@H]2[C@@H]3C(=O)C=C4C[C@@H](O)CC[C@]4(C)[C@H]3CC[C@]12C [7-ketocholesterol]	1460 nM
C[C@H](CCCC(C)(C)O)[C@H]1CC[C@H]2[C@@H]3CC=C4C[C@@H](O)CC[C@]4(C)[C@H]3CC[C@]12C [25-hydroxycholesterol]	9.1 ± 2 nM
CC(C)[C@@H](C)/C=C/[C@@H](C)[C@H]1CC[C@H]2C3=C[C@@H](O)[C@@]4(O)C[C@@H](O)CC[C@]4(C)[C@H]3CC[C@]12C [cerevisterol]	3.4 ± 1.3 nM
CC(C)CCC[C@@H](C)[C@H]1CC[C@H]2[C@@H]3CC=C4C[C@@H](O)CC[C@]4(C)[C@H]3CC[C@]12C [cholesterol]	333 ± 45.3 nM
CC(C)[C@@H](C)/C=C/[C@@H](C)[C@H]1CC[C@@H]2[C@]1(C)CC[C@H]1[C@]23C=C[C@]2(C[C@@H](O)CC[C@]12C)OO3 [ergosterol peroxide]	8.1 ± 2.1 nM
CC(C)[C@@H](C)/C=C/[C@@H](C)[C@H]1CC[C@H]2C3=CC=C4C[C@@H](O)CC[C@]4(C)[C@H]3CC[C@]12C [ergosterol]	122 ± 24.3 nM
